Laboratory results as given in PubChem BioAssay AID256 (DTP/NCI, 2004).
Where “and” joins values, the source holds several entries; their conditions need not be identical. Equal values may be shown once. Toxic doses and inconclusive results are not listed. The calls were made as follows: active = survival T/C of 150% or more; inactive = T/C below 125% in these data.

Test system: CD2F1 mice, L1210 leukemia ip, survival T/C
Test: NCI In Vivo Anticancer Drug Screen. Data for tumor model L1210 Leukemia (intraperitoneal) in CD2F1 (CDF1) mice
Conditions: higher = longer survival
How it was run: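 Vehicle-treated tumor-bearing mice served as controls (C) for compound-treated mice (T). Reported figure is T divided by C.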

[1] = endpoint: mean survival time, dose: 6.25 mg/kg/injection, schedule: Q01DX009 (ip), vehicle: saline with Tween-80
[2] = endpoint: mean survival time, dose: 100.0 mg/kg/injection, schedule: Q04DX003 (ip), vehicle: saline with Tween-80
[3] = endpoint: mean survival time, dose: 200.0 mg/kg/injection, schedule: Q04DX003 (ip), vehicle: saline with Tween-80
[4] = endpoint: mean survival time, dose: 50.0 mg/kg/injection, schedule: Q01DX009 (ip), vehicle: saline with Tween-80
[5] = endpoint: mean survival time, dose: 25.0 mg/kg/injection, schedule: Q01DX009 (ip), vehicle: Klucel (hydroxypropylcellulose) (HPC)
[6] = endpoint: mean survival time, dose: 50.0 mg/kg/injection, schedule: Q01DX009 (ip), vehicle: Klucel (hydroxypropylcellulose) (HPC)
[7] = endpoint: mean survival time, dose: 100.0 mg/kg/injection, schedule: Q01DX009 (ip), vehicle: saline with Tween-80
[8] = endpoint: mean survival time, dose: 200.0 mg/kg/injection, schedule: Q01DX009 (ip), vehicle: saline with Tween-80
[9] = endpoint: mean survival time, dose: 400.0 mg/kg/injection, schedule: Q01DX009 (ip), vehicle: saline with Tween-80
[10] = endpoint: mean survival time, dose: 400.0 mg/kg/injection, schedule: Q04DX003 (ip), vehicle: saline with Tween-80

Measured: T/C

CCCCOC(=O)/C=C\C(=O)OC(C)C(=O)OCCCC (configuration not stated)
inactive: endpoint: median survival time, dose: 50.0 mg/kg/injection, schedule: Q04DX002 (ip), vehicle: saline with Tween-80 100 % of control | endpoint: median survival time, dose: 100.0 mg/kg/injection, schedule: Q04DX002 (ip), vehicle: saline with Tween-80 100 % of control | endpoint: median survival time, dose: 200.0 mg/kg/injection, schedule: Q04DX002 (ip), vehicle: saline with Tween-80 100 % of control | endpoint: median survival time, dose: 400.0 mg/kg/injection, schedule: Q04DX002 (ip), vehicle: saline with Tween-80 88 % of control

CCN(CC)C(=S)[S][Pb]([CH2]C)([CH2]C)[CH2]C
inactive: [1] 96 % of control

C#CCOC(=O)Nc1cccc2ccccc12
inactive: endpoint: mean survival time, dose: 100.0 mg/kg/injection, schedule: Q04DX003 (ip), vehicle: Klucel (hydroxypropylcellulose) (HPC) 100 % of control | endpoint: mean survival time, dose: 200.0 mg/kg/injection, schedule: Q04DX003 (ip), vehicle: Klucel (hydroxypropylcellulose) (HPC) 96 % of control | endpoint: mean survival time, dose: 400.0 mg/kg/injection, schedule: Q04DX003 (ip), vehicle: Klucel (hydroxypropylcellulose) (HPC) 94 % of control

CC(=O)c1ccc2c3c(ccc([N+](=O)[O-])c13)C(=O)OC2=O
inactive: [2] 91 % of control | [3] 95 % of control

COc1cc(/C(C)=N\O)ccc1O
inactive: endpoint: mean survival time, dose: 100.0 mg/kg/injection, schedule: Q01DX001 (ip), vehicle: other 102 % of control | endpoint: mean survival time, dose: 100.0 mg/kg/injection, schedule: Q01DX009 (ip), vehicle: other 107 % of control | endpoint: mean survival time, dose: 200.0 mg/kg/injection, schedule: Q01DX001 (ip), vehicle: other 108 % of control | endpoint: mean survival time, dose: 200.0 mg/kg/injection, schedule: Q01DX009 (ip), vehicle: other 102 % of control | endpoint: mean survival time, dose: 400.0 mg/kg/injection, schedule: Q01DX001 (ip), vehicle: other 98 % of control | endpoint: mean survival time, dose: 400.0 mg/kg/injection, schedule: Q01DX009 (ip), vehicle: other 90 % of control

NC(=Nc1ccc(Cl)cc1)/N=C(/N)N1CCN(/C(N)=N/C(N)=Nc2ccc(Cl)cc2)CC1
inactive: [4] 104 % of control | [2] 98 % of control | [3] 98 % of control

COc1ccc(N2C(=O)C=CC2=O)cc1
inactive: endpoint: mean survival time, dose: 6.25 mg/kg/injection, schedule: Q01DX001 (ip), vehicle: saline with Tween-80 103 % of control | endpoint: mean survival time, dose: 12.5 mg/kg/injection, schedule: Q01DX001 (ip), vehicle: saline with Tween-80 88 % of control | endpoint: mean survival time, dose: 25.0 mg/kg/injection, schedule: Q01DX001 (ip), vehicle: saline with Tween-80 94 % of control and 97 % of control

CCCCCCCCC(O)CCC (configuration not stated)
inactive: endpoint: mean survival time, dose: 100.0 mg/kg/injection, schedule: Q04DX003 (ip), vehicle: saline 96 % of control | endpoint: mean survival time, dose: 200.0 mg/kg/injection, schedule: Q04DX003 (ip), vehicle: saline 98 % of control | endpoint: mean survival time, dose: 400.0 mg/kg/injection, schedule: Q04DX003 (ip), vehicle: saline 100 % of control

N#CCN(CC#N)c1ccccc1
inactive: endpoint: mean survival time, dose: 1.56 mg/kg/injection, schedule: Q01DX001 (ip), vehicle: other 95 % of control | endpoint: mean survival time, dose: 3.13 mg/kg/injection, schedule: Q01DX001 (ip), vehicle: other 95 % of control | endpoint: mean survival time, dose: 6.25 mg/kg/injection, schedule: Q01DX001 (ip), vehicle: other 98 % of control and 100 % of control

CC(=O)Nc1ccc(S(N)(=O)=O)cc1
inactive: [5] 100 % of control | [6] 95 % of control | endpoint: mean survival time, dose: 100.0 mg/kg/injection, schedule: Q01DX009 (ip), vehicle: Klucel (hydroxypropylcellulose) (HPC) 100 % of control

CCC(=O)C(c1ccccc1)(c1ccccc1)c1ccccc1
inactive: endpoint: mean survival time, dose: 25.0 mg/kg/injection, schedule: Q04DX002 (ip), vehicle: other 98 % of control | endpoint: mean survival time, dose: 50.0 mg/kg/injection, schedule: Q04DX002 (ip), vehicle: other 95 % of control | endpoint: mean survival time, dose: 100.0 mg/kg/injection, schedule: Q04DX002 (ip), vehicle: other 95 % of control

C1CC[N-]CC1.[Cl][Pt+2][Cl].[NH2-]
inactive: endpoint: mean survival time, dose: 6.25 mg/kg/injection, schedule: Q04DX003 (ip), vehicle: distilled water + Tween-80 100 % of control | endpoint: mean survival time, dose: 12.5 mg/kg/injection, schedule: Q04DX003 (ip), vehicle: distilled water + Tween-80 96 % of control | endpoint: mean survival time, dose: 25.0 mg/kg/injection, schedule: Q04DX003 (ip), vehicle: distilled water + Tween-80 94 % of control | endpoint: mean survival time, dose: 50.0 mg/kg/injection, schedule: Q04DX003 (ip), vehicle: distilled water + Tween-80 91 % of control

CCOC(=O)c1[nH]c(C2OC(CO)C(O)C2O)nc1O (configuration not stated)
inactive: endpoint: median survival time, dose: 49.9 mg/kg/injection, schedule: Q01DX005 (ip), vehicle: saline 96 % of control | endpoint: median survival time, dose: 99.7 mg/kg/injection, schedule: Q01DX005 (ip), vehicle: saline 98 % of control | endpoint: median survival time, dose: 199.3 mg/kg/injection, schedule: Q01DX005 (ip), vehicle: saline 96 % of control

NC(=O)c1csc(COCC(O)CO)n1 (configuration not stated)
inactive: endpoint: median survival time, dose: 33.0 mg/kg/injection, schedule: Q01DX009 (ip), vehicle: water 101 % of control | endpoint: median survival time, dose: 66.0 mg/kg/injection, schedule: Q01DX009 (ip), vehicle: water 103 % of control | endpoint: median survival time, dose: 132.0 mg/kg/injection, schedule: Q01DX009 (ip), vehicle: water 107 % of control | endpoint: median survival time, dose: 264.0 mg/kg/injection, schedule: Q01DX009 (ip), vehicle: water 101 % of control

CSc1nc(NC2OC(CO)C(O)C(O)C2O)c(I)c(=O)n1C (configuration not stated)
inactive: endpoint: median survival time, dose: 12.5 mg/kg/injection, schedule: Q01DX005 (ip), vehicle: saline with Tween-80 100 % of control | endpoint: median survival time, dose: 25.0 mg/kg/injection, schedule: Q01DX005 (ip), vehicle: saline with Tween-80 100 % of control | endpoint: median survival time, dose: 50.0 mg/kg/injection, schedule: Q01DX005 (ip), vehicle: saline with Tween-80 103 % of control | endpoint: median survival time, dose: 100.0 mg/kg/injection, schedule: Q01DX005 (ip), vehicle: saline with Tween-80 107 % of control | endpoint: median survival time, dose: 200.0 mg/kg/injection, schedule: Q01DX005 (ip), vehicle: saline with Tween-80 119 % of control

CC1(C)N=C(N)N=C(N)N1c1cccc(C(C#N)CCCc2ccccc2)c1 (configuration not stated)
inactive: endpoint: mean survival time, dose: 12.5 mg/kg/injection, schedule: Q01DX009 (ip), vehicle: Klucel (hydroxypropylcellulose) (HPC) 104 % of control | [5] 104 % of control | [6] 88 % of control

COC1OC(CN2C(=O)c3ccccc3C2=O)C2OC(C)(C)OC12 (configuration not stated)
inactive: [7] 98 % of control | [8] 94 % of control | [9] 98 % of control

C=C1C(=O)O[C@@H]2C[C@@H](C)[C@@H]3[C@@H](OC4OC(COC(C)=O)C(O)C(O)C4O)CC(=O)[C@@]3(C)C[C@H]12 (some centres not stated)
inactive: endpoint: mean survival time, dose: 35.0 mg/kg/injection, schedule: Q01DX009 (ip), vehicle: saline 108 % of control | endpoint: mean survival time, dose: 50.0 mg/kg/injection, schedule: Q01DX009 (ip), vehicle: saline 95 % of control | endpoint: mean survival time, dose: 75.0 mg/kg/injection, schedule: Q01DX009 (ip), vehicle: saline 102 % of control

OCC#CCOCC(O)CCl (configuration not stated)
inactive: endpoint: mean survival time, dose: 25.0 mg/kg/injection, schedule: Q01DX009 (ip), vehicle: water 107 % of control | endpoint: mean survival time, dose: 50.0 mg/kg/injection, schedule: Q01DX009 (ip), vehicle: water 98 % of control | endpoint: mean survival time, dose: 100.0 mg/kg/injection, schedule: Q01DX009 (ip), vehicle: water 104 % of control | endpoint: mean survival time, dose: 200.0 mg/kg/injection, schedule: Q01DX009 (ip), vehicle: water 97 % of control

O=C1C=C(NC2CCCCCC2)C(=O)c2nccnc21
inactive: [1] 91 % of control | endpoint: mean survival time, dose: 12.5 mg/kg/injection, schedule: Q01DX009 (ip), vehicle: saline with Tween-80 95 % of control | endpoint: mean survival time, dose: 25.0 mg/kg/injection, schedule: Q01DX009 (ip), vehicle: saline with Tween-80 91 % of control | [4] 93 % of control

S=C([SH2+])[SH2+].S=C([SH2+])[SH2+].[Pt+2].c1ccc(C[P+](c2ccccc2)(c2ccccc2)c2ccccc2)cc1
inactive: endpoint: mean survival time, dose: 12.0 mg/kg/injection, schedule: Q04DX003 (ip), vehicle: saline 87 % of control | endpoint: mean survival time, dose: 25.0 mg/kg/injection, schedule: Q04DX003 (ip), vehicle: saline 100 % of control | endpoint: mean survival time, dose: 50.0 mg/kg/injection, schedule: Q04DX003 (ip), vehicle: saline 94 % of control

NC(N)=NCCCC(NC(c1ccccc1)(c1ccccc1)c1ccccc1)C(=O)O (configuration not stated)
inactive: endpoint: mean survival time, dose: 100.0 mg/kg/injection, schedule: Q01DX001 (ip), vehicle: saline 88 % of control | endpoint: mean survival time, dose: 200.0 mg/kg/injection, schedule: Q01DX001 (ip), vehicle: saline 92 % of control | endpoint: mean survival time, dose: 400.0 mg/kg/injection, schedule: Q01DX001 (ip), vehicle: saline 98 % of control

O=[N+]([O-])c1cccc(S(=O)(=O)Nc2ccccc2Cl)c1
inactive: [7] 97 % of control | [2] 96 % of control | [8] 92 % of control | [3] 96 % of control | [9] 95 % of control | [10] 95 % of control

CCCCOB=O
inactive: [2] 96 % of control | [3] 98 % of control | [10] 95 % of control
